BigSolDB 2.1

c1ccc(-n2c3ccccc3c3ccccc32)cc1
solubility (mole fraction)
Details	278.15 K	283.15 K	288.15 K	293.15 K	298.15 K	303.15 K	308.15 K	313.15 K
in 1,4-dioxane	–	–	0.124	0.213	0.292	0.417	0.514	0.717
in THF	0.249	0.274	0.309	0.346	0.386	0.439	0.497	0.562
in acetonitrile	0.00383	0.00413	0.00487	0.00582	0.00624	0.00735	0.00826	0.0102
in chloroform	0.237	0.262	0.322	0.399	0.461	0.555	0.651	0.753
in cyclohexane	–	0.034	0.0421	0.0523	0.0691	0.0815	0.101	0.132
in dichloromethane	0.223	0.246	0.311	0.385	0.453	0.548	0.644	–
in ethanol	0.00099	0.00167	0.00218	0.00271	0.00334	0.0042	0.00574	0.007
in isopropanol	0.001	0.00131	0.00215	0.00244	0.00303	0.004	0.00458	0.00591
in methanol	6.96e-05	0.00011	0.000178	0.000208	0.000251	0.000296	0.000427	0.00055
in n-butanol	0.00207	0.00219	0.00266	0.00333	0.00403	0.00468	0.00691	0.00919
in n-hexane	0.0355	0.0378	0.0431	0.0494	0.0552	0.0624	0.0703	0.078
in n-propanol	0.00298	0.00323	0.00412	0.00517	0.0061	0.00749	0.00936	0.0116
